# Results reported in paper PMC9418147, “Identification and structure-based drug design of cell-active inhibitors of interleukin 17A at a novel C-terminal site” (Scientific Reports, 2022).
# “And” between values parts separate entries of the source, which are not always exact repeats. Identical values can stand only once. “Also recorded” adds a separate entry of the source. Like-named read-outs stand apart in the source and are kept apart here.
# What was measured:
# [1] = biological target: T1, IL17A (Homo sapiens, UniProt Q16552); test: Compound binding to IL17A via surface plasmon resonance (SPR); settings: for Kd: binding to IL17A
# T1 construct: Biotinylated Avi-tag IL17A-(24–155) was produced by enzymatic biotinylation; 6His-MBP (N, cleaved yes); made in house; host or cells: Escherichia coli Shuffle T7 express (NEB)
# Experimental: Compounds were assayed via Surface Plasmon Resonance (SPR) using Biacore T200 instrument and Biacore 4000 [Formerly GE Healthcare (now Cytiva Life Sciences)]. […] Sensorgrams were processed (including solvent correction) and analyzed using Biacore T200 and Biacore 4000 evaluation software. The binding curves were fit to determine the equilibrium dissociation constant (KD) and kinetic constants (kon and koff).
# Supplemental Figure 2: Measurement for binding of IL17A inhibitors by Surface Plasmon Resonance (SPR).
# [2] = biological target: T2, IL17A-IL17RA-Fc complex (Homo sapiens, UniProt Q16552); test: IL17A-IL17RA-Fc AlphaLISA assay; assay type: biochemical
# T2 construct: purchased R&D Systems
# Experimental: (§1) AlphaLISA technology was used to understand the ability of compounds to inhibit IL17A binding to IL17 receptor (IL17RA). Compounds of interest were diluted in 100% DMSO and plated in a 384 well white proxiplate (Perkin Elmer) using Echo Acoustic Liquid Handler (LabCyte Sunnydale, CA). To the compound plate, 4 µL of biotinylated IL17A (R&D systems) and 2 µL of IL17RA-Fc (R&D Systems) was added, to provide a final concentration of 1 nM of IL17RA-Fc and IL17A, respectively. The assay was carried out in 100 mM Tris, 0.01% Tween-20, 0.1% BSA, pH 8.0. The assay mixture was allowed to incubate at room temperature for 60 min, after which, 2 µL of protein A AlphaLISA acceptor beads (#AL101M, PerkinElmer) was added to a final concentration of 7.5 µg/mL for 60 min. To the plate, 2 µL of streptavidin donor beads (#6,760,002, PerkinElmer) was added to a final concentration of 7.5 µg/mL. The plate was allowed to incubate for one hour at room temperature, then loaded into the Envision multimode plate reader (Perkin Elmer). AlphaLISA TruHits Kits (#AL900D, PerkinElmer) were used to assess potential false positives. All inhibition experiments were normalized against DMSO control containing no inhibitor. Example raw data are shown in Supplementary Fig. 10A.
# [3] = tested on: IL17A/TNF stimulated HeLa cells carrying an LCN2 promoter-driven luciferase reporter; test: IL17A/TNF stimulated HeLa-LCN2 luciferase reporter cells; assay type: cell-based; settings: for IC50: Homo sapiens, HeLa LCN2 luciferase reporter, IL17A and TNF, read-out: IL17A/TNF stimulated cell IC50
# Experimental: (§2) The promoter of the IL17 target gene lipocalin 2 (LCN2) inserted into pGL4-luciferase vector (pGL4[luc2P/LCN2/Hygro], obtained from Promega) was used to generate a stable clone in HeLa cells (ATCC) using hygromycin. In response to IL17 stimulation the increase in LCN2-luciferase gene transcription can be monitored using the luciferase reporter assay as described below. The reporter cells (HeLa-LCN2) were cultured in Dulbecco's modified Eagle's medium supplemented with 10% (v/v) fetal bovine serum, 0.2 mg/mL hygromycin, and 1% penicillin and streptomycin. Cells were maintained at 37 °C in a humidified atmosphere of 5% CO2. The assay media contained Dulbecco's modified Eagle's medium supplemented with 0.5% Charcoal-stripped FBS and 1% penicillin and streptomycin. About 7500 cells per well were plated in 40 ul assay media in a 384-well black plate (Grenier, #781,090) for 16 h. Then cells were stimulated with IL17A (10 ng/mL) and TNF (20 ng/mL) for 6 h at 37 °C and 5% CO2. The supernatant was removed and 25 µL of One-Glo reagent (#E6110, Promega) was added to the wells and luminescence was measured using Envision multimode plate reader. Background signal was measured using the same protocol by stimulating cells with TNF (20 ng/mL) in the absence of IL17A. All inhibition experiments were normalized against DMSO control containing no inhibitor. Example raw data are shown in Supplementary Fig. 10B.
# [4] = tested on: T3, IL17A-IL17RA interactions; test: SPR competition assay: IL17A +/- inhibitor over immobilized IL17RA; assay type: binding; settings: IL17A +/- inhibitor injected over immobilized IL17RA
# T3 construct: IL17A WT (34–155)C129S and Truncated (34–148)C129S was injected; Trx-6His (N, cleaved yes); made in house; host or cells: Escherichia coli Shuffle T7 express (NEB) for IL17A
# Experimental: (§3) To interrogate IL17A—IL17RA binding and the effect of compound binding to IL17A for interaction with IL17RA, Biotinylated Avi tag IL17RA was immobilized using CAP chip. IL17A WT protein with and without compounds was injected over the immobilized IL17RA surface. The surface was regenerated using mixture of 8 M Guanidine Hydrochloride and 1 M Sodium Hydroxide. To profile both IL17A WT and truncated-IL17A binding to IL17RA, Fc tag IL17RA (Sino Biological) was captured on immobilized anti-Fc (Human Fc from Pierce) surface. IL17A WT (34–155)C129S and Truncated (34–148)C129S was injected at flow rate of 80 µL/min for contact time of 180 s and dissociation was monitored for 1200 s. The surface was regenerated with 2 consecutive injections (60 s and 10 s at 60 µL/min) of 10 mM Glycine, pH 1.5.
# Supplemental Figure 6: C-terminal binding site compounds can disrupt IL17A binding to its receptor in SPR competition assay. Biotinylated Avi-tagged IL17RA was captured on CAP chip; IL17A +/- inhibitor samples were injected over immobilized IL17RA . Cmpd 1 was used as the positive control. [picture]
# [5] = tested on: TNF-only stimulated HeLa reporter cells; test: TNF-only stimulated HeLa-LCN2 luciferase reporter cells; assay type: cell-based; settings: Homo sapiens, read-out: TNF-only stimulated cell IC50
# Experimental: as §2
# [6] = AlphaLISA TruHits counter screen for false positives; settings: AlphaLISA non-specific effects; read-out: TruHits counterscreen IC50
# Experimental: as §1
# [7] = biological target: T1, IL17A; test: Fluorescence polarization competition assay with FP probe Cmpd 11; assay type: binding; settings: for Competition for IL17A with FP probe: probe Cmpd 11
# Experimental: Fluorescence polarization (FP) assays were performed in black shallow 384-well micro plates (ProxiPlate – 384 F Plus, PerkinElmer) using Envision multimode plate reader (Perkin-Elmer). Polarization was measured by using an excitation filter of 485 nm and an emission filter of 535 nm. Each well was flashed 50 times, and the average values were used. Briefly, 5 µL of IL17A (20 nM) diluted in the assay buffer (50 mM Tris pH 8.0, 0.001% Tween) was added to compound containing wells and incubated for 60 min. To this, 5 µL of the FP probe (10 nM) was added and the reaction mixture was incubated for 120 min at room temperature prior to measuring FP. All inhibition experiments were normalized against DMSO control containing no inhibitor.
# [8] = biological target: T1, IL17A; test: Isothermal titration calorimetry with IL17A dimer; assay type: binding; settings: reverse titration, 50 mM sodium phosphate pH 7.0; read-out: ITC affinity (KD)
# Experimental: Supplemental Figure 7: Isothermal titration calorimetry of Cmpd 10. Theoretical binding of 1 molecule to a IL17A dimer would result in N of 0.5. Observed stoichiometry was 0.7. 200 µM IL17A (dimer) used injected (reverse titration) to 20 µM Cmpd 10 in 50 mM sodium phosphate pH 7.0.
# [9] = biological target: T4, IL17A (Homo sapiens, UniProt Q16552, C129S); test: 2D NMR titration of compound binding to IL17A
# T4 construct: For crystallography, NMR and early SPR studies, IL17A (34–155)C129S; Trx-6His (N, cleaved yes); made in house; host or cells: Escherichia coli Shuffle T7 express (NEB)
# Experimental: NMR spectra were acquired on either a Bruker 500 MHz AVANCE III spectrometer or a Bruker 600 MHz AVANCE III HD spectrometer, both with cryoprobes, on 60 µM protein samples in 20 mM deuterated TRIS buffer, pH 8.0, with 150 mM NaCl. For fragment screening, fragments were added from a concentrated DMSO stock to a concentration of 1 mM in the NMR tube. As described above, fragments were initially added as mixtures of 12 and those mixtures which induced significant changes in a 13C-HSQC spectrum of the protein were then deconvoluted to find the individual binders.
# [10] = biological target: T5, IL17RA (Homo sapiens, UniProt Q96F46); test: SPR of IL17A WT and truncated IL17A binding to IL17RA; settings: IL17A construct binding to IL17RA
# T5 construct: purchased Sino Biological
# Experimental: as §3
# [11] = disruption of IL17A-IL17RA-Fc complex formation, read-out: IL17A/IL17RA-Fc AlphaLISA IC50
# T2 sequence (Q16552 24-155, one chain of several): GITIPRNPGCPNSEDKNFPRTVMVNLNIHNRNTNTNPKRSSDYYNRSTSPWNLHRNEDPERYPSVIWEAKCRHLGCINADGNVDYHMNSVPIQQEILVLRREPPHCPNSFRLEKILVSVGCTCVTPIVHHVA
# T1 sequence (Q16552 24-155): as the sequence (Q16552 24-155, one chain of several) above
# T4 sequence (Q16552 34-155 C129S): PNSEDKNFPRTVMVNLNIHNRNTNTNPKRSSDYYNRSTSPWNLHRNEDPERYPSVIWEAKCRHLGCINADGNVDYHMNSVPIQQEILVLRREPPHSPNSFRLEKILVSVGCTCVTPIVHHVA
compound,measurement,setting,value
"O=C1CC2(CCCC2)CC(=O)NC(Cc2ccc(NC(=O)C(Cc3ccccc3Cl)NC(=O)Cc3cccc(O)c3)cc2)C(=O)NCCOCCOCCN1 (stereo not drawn) [Cmpd 1, reference compound]",Kd,[1],~0.004 µM
same,Binding efficiency index (BEI),[1]; from SPR KD and molecular weight,11–13
same,Potency in biochemical assays,[2]; positive control in biochemical assays,low nM potency
same,Concentration needed to block cellular signaling,[3]; positive control in cellular assays,~ 3 µM
"O=C(COc1ccccc1CNc1cc(C(=O)O)cc(-c2ccnc3ccccc23)c1)NCCNC(=O)COc1ccccc1CNc1cc(C(=O)O)cc(-c2ccnc3ccccc23)c1 [Cmpd 8, 5,5'-((((((ethane-1,2-diylbis(azanediyl))bis(2-oxoethane-2,1-diyl))bis(oxy))-bis(2,1-phenylene))bis(methylene))bis(azanediyl))bis(3-(quinolin-4-yl)benzoic acid)]",Disruption of IL17A-IL17RA interactions in SPR-based assay,[4],could block IL17A receptor interactions; also recorded: showed disruption of IL17A-IL17RA interactions
same,Kd,[1],0.37 µM
same,IC50,[5],~51 µM
same,IC50,[2]; [11],3.6 µM and ~4 µM
same,IC50,[3],4.7 µM
same,IC50,[6],~54 µM
same,Competition for IL17A with FP probe,[7],full competition
"O=C(COc1ccccc1CNc1cc(C(=O)O)cc(-c2ccnc3ccccc23)c1)NCCOCCOc1ccccc1CNc1cc(C(=O)O)cc(-c2ccnc3ccccc23)c1 [Cmpd 9, 3-((2-(2-(2-(2-(2-(((3-carboxy-5-(quinolin-4-yl)phenyl)amino)methyl)-phenoxy)acetamido)ethoxy)ethoxy)-benzyl)amino)-5-(quinolin-4-yl)benzoic acid]",Kd,[1],0.21 µM and 0.209 µM
same,IC50,[5],> 70 µM
same,IC50,[2]; [11],1.3 µM
same,IC50,[3],5.7 µM
same,IC50,[6],~57 µM
same,Competition for IL17A with FP probe,[7],full competition
O=C(O)c1cc(NCc2ccccc2OCCOCCOCCOc2ccccc2CNc2cc(C(=O)O)cc(-c3ccnc4ccccc34)c2)cc(-c2ccnc3ccccc23)c1 [Cmpd 10],Kd,[1],0.043 µM and < 0.1 µM
same,IC50,[5],> 50 µM
same,IC50,"[2]; inhibition of IL17A/IL17RA-Fc interactions, read-out: IL17A/IL17RA-Fc IC50",0.74 µM
same,IC50,[3],1.3 µM
same,Kd,[8],0.044 µM
same,IC50,[7]; unlabeled compound pre-bound to IL17A before addition of FP probe,0.107 µM
"c1ccc(CNc2cncc(-c3ccc4[nH]nc(NCCN5CCOCC5)c4c3)c2)cc1 [Cmpd 5, 5-(5-(benzylamino)pyridin-3-yl)-N-(2-morpholinoethyl)-1H-indazol-3-amine]",Kd,[9],12 µM
"Clc1ncc(NCc2ccccc2)cc1-c1cccc2ncccc12 [Cmpd 6, N-benzyl-6-chloro-5-(quinolin-5-yl)pyridin-3-amine]",Kd,[1],~70 µM and 72 µM
"C/C=C/c1cccc2c(N)n[nH]c12 [Cmpd 4, (E)-7-(prop-1-en-1-yl)-1H-indazol-3-amine]",Kd,[1],> 250 µM
C-terminal deletion: IL17A construct (aa 34–148) lacking the final C-terminal residues (aa 149–155),Interaction with IL17RA by SPR,[10],did not productively interact with IL17RA
